Experimental data from patent US12649980B2, “Three-dimensional surface for protein and small molecule microarrays” (The Johns Hopkins University, priority 2019, dated 2026).

Experiments:
[1] = system: MCF-7; assay: [3H]-2DG uptake assay in MCF-7 cells; format: cell-based, human
Procedure: Hay, Nat. Rev. […] To determine whether RgA could inhibit glucose uptake in cancer cell lines in addition to A549, the impact of RgA on [3H]-2DG uptake in six other cancer cell lines, including HCC1954, MCF-7, PANC10.05, Jurkat T, HeLa, and RKO was measured (FIG. 3A, Table 3).
(§1) The inhibitory activity of compounds on glucose transport was analyzed by measuring the cell uptake of [3H]-2DG as previously described. Ulanovskaya et al., Chem. Biol. 2011, 18, 222-230. Briefly, cells were washed twice and incubated in low-glucose medium for 10 min. Cells were added drugs and incubated for another 10 min before adding [3H]-2DG. After 10 min incubation with [3H]-2DG, cells were washed twice and lysed with 0.2 N NaOH plus 0.2% SDS. The cell lysate was transferred to a new tube containing 1 mL of optiphase supermix. Glucose uptake was quantified with a scintillation counter.

[2] = system: A549; assay: Alamar blue cell proliferation assay, A549; format: cell-based, human; conditions: A549, 72 h; read-out: IC50 Assay B (Alamar blue cell proliferation)
Procedure: (§2) The effects of RgA on cell growth, survival, and cell death was then determined. […] Treatment with 5 μM of RgA caused an increase in G1 phase by approximately 23% in comparison to control and approximately 7% and 17% decreases in cells in S and G2/M phases, respectively. The induction in G1 phase cell cycle arrest by RgA is dose-dependent (FIG. 5A, FIG. 16). […] Jones and Thompson, Genes Dev. 2009, 23, 537-548. […] The IC50 values of RgA against several human cancer cell lines also was determined using the alamar blue cell proliferation assay.
(§3) Cells were seeded into a 96-well plate (Costar) in 180 μL culture media. After an overnight recovery, drugs were added and incubated for 72 h. After drug incubation, cells were added with 20 μL of alamar blue reagent and the plates were incubated at 37° C. for 6 h before reading the fluorescence (544 nm Ex/590 nm Em) with a plate reader. GraphPad Prism (v4.03) software was used to determine IC50 values using a four parameter logistic regression.

[3] = system: PANC10.05; assay: Alamar blue cell proliferation assay, PANC10.05; format: cell-based, human; conditions: PANC 10.05, 72 h; read-out: IC50 Assay B (Alamar blue cell proliferation)
Procedure: as §2, §3

[4] = system: DLD1 GLUT1 KO; assay: [3H]-2DG uptake in DLD1 GLUT1 knockout cells; format: cell-based
Procedure: as §1

[5] = target: FKBP12 (Homo sapiens, UniProt P62942); assay: peptidyl prolyl cis-trans isomerase activity inhibition, FKBP12; format: biochemical; conditions: inhibition of prolyl isomerase activity
Sequence of FKBP12 (P62942 whole entry, species assumed): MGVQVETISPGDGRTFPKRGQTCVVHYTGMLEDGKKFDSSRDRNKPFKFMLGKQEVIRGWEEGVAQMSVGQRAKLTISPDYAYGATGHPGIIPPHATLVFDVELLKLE

[6] = target: FKBP51 (Homo sapiens, UniProt Q13451); assay: peptidyl prolyl cis-trans isomerase activity inhibition, FKBP51; format: biochemical; conditions: inhibition of prolyl isomerase activity
Sequence of FKBP51 (Q13451 whole entry): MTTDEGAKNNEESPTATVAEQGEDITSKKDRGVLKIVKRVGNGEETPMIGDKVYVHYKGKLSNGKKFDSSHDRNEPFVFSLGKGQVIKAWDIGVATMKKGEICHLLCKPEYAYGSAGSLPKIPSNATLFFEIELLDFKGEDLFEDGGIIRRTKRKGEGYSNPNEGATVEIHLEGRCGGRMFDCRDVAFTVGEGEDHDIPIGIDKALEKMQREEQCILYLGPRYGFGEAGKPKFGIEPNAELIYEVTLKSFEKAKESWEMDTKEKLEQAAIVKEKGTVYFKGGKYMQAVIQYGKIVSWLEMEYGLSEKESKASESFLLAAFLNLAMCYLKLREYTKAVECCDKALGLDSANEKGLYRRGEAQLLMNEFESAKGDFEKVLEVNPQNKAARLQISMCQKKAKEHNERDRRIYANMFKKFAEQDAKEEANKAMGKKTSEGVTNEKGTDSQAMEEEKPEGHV

[7] = target: FKBP52 (Homo sapiens, UniProt Q02790); assay: peptidyl prolyl cis-trans isomerase activity inhibition, FKBP52; format: biochemical; conditions: inhibition of prolyl isomerase activity
Sequence of FKBP52 (Q02790 whole entry, species assumed): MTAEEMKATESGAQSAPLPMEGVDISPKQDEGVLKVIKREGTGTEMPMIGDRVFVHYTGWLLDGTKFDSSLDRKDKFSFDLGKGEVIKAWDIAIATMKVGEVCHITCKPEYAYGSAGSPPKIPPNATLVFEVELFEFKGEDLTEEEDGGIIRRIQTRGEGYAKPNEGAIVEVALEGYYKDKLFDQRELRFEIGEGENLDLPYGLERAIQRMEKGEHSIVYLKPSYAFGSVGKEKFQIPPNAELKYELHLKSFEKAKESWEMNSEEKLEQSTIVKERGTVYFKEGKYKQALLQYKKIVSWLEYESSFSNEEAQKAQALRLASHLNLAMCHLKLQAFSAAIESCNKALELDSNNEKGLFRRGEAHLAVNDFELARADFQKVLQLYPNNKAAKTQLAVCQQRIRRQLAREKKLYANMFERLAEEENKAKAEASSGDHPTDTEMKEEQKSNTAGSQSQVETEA

[8] = system: human red blood cells; assay: [3H]-2DG uptake in human red blood cells; format: cell-based; conditions: human red blood cells that exclusively express GLUT1; read-out: IC50 [3H]-2DG uptake into red blood cells
Procedure: To determine which of the 17 rapafucin hits inhibited the transporter activity of GLUT1, an orthogonal glucose uptake assay using 2-deoxy-D-[3H] glucose ([3H]-2DG), a nonhydrolyzable, radioactive glucose analog, was employed. Each hit was separately incubated with A549 cells for 10 min before the amount of [3H]-2DG taken up by the cells was measured using scintillation counting. […] The effect of JW11-D2 on uptake of [3H]-2DG in human red blood cells that exclusively express GLUT1 was then determined. Helgerson and Carruthers, J. Biol. Chem. 1987, 262, 5464-5475. […] To further improve the potency of JW11-D2, a structure-activity relationship (SAR) study was performed by synthesizing 21 new analogs of JW11-D2 using different amino acid building blocks.
as §1

[9] = system: PARP and caspase 7; assay: Western blot of apoptosis markers in MCF-7 cells; format: cell-based, human; conditions: MCF-7, 5 μM, 72 h; inhibited by Z-VAD
Procedure: as §2
For western blot analysis, cells were harvested and lysed by RIPA buffer plus protease inhibitor. Cell lysates or samples from pull-down experiment were subjected to SDS/PAGE and then transferred to a nitrocellulose membrane. Membranes were first blocked in 5% (wt/vol) BSA in Tris-buffered saline plus 0.1% Tween 20 (TBST) at room temperature for 30 min and incubated with primary antibodies at 4° C. for overnight. Membranes were then washed three times with TBST and incubated with secondary antibodies at room temperature for another 1 h. Membranes were washed with TBST three times again and incubated with ECL substrate for 1 min at room temperature. Pictures were captured using a GeneSys Image Station.

- IC50 ([1]; MCF-7): 3.3 nM
- IC50 [2]: 189 nM
- IC50 [3]: 119 nM
- EC50 ([4]; DLD1 GLUT1 knockout): 27.1 ± 3.6 nM
- Ki [5]: 1.5 nM
- Ki [6]: 46 ± 10 nM
- Ki [7]: 32 ± 3 nM
- IC50 [8]: 34.2 nM
SMILES: CCC(C)C1C(=O)NCC(=O)N(C)CCC=CC(=O)OCC(C)(C)C(=O)C(=O)N2CCCCC2C(=O)OC(CCc2ccc(OC)c(OC)c2)c2cccc(c2)NC(=O)CCC(=O)N(C)C(CC(C)C)C(=O)NC(Cc2ccccc2)C(=O)N1C (centres unmarked) [JW11-D2, Rapaglutin A]
- effect of high concentration of FK506 and rapamycin on the inhibitory activity of RgA ([1]; MCF-7, 100 nM RgA, 20 μM FK506, 20 μM Rapamycin): negligible effect
- inhibitory activity in GLUT1 knock out cells ([4]; DLD-1 GLUT1 knock out versus wild type): retained its inhibitory activity
- PARP and caspase 7 cleavage (apoptosis) [9]: resulted in poly(ADP-ribose) polymerase (PARP) and caspase 7 cleavage
